Assay results from the supplement of paper PMC10627819.

Columns and labels:
[1] = test system: B. subtilis 168; experiment: Bliss interaction score (quartile over a dose matrix) (fitness difference); higher = more antagonism (negative = synergy)
Procedure, shortened: (§1)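 The Bliss score was calculated by subtracting the expected fitness, the product of single-drug values, from the observed fitness. OD595 at entry into stationary phase, over the plate's robust no-drug mean and capped at 1, served as the fitness readout. Single-drug values were inferred from combination data, and scores are summarised by quartiles across technical, biological and donor/recipient replicates.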

[2] = test system: S. aureus DSM 20231; experiment: as above
Procedure, shortened: as §1

[3] = test system: S. pneumoniae D39V; experiment: as above
Procedure, shortened: as §1

[4] = test system: S. aureus Newman; experiment: as above
Procedure, shortened: as §1

[5] = test system: B. subtilis 168; experiment: fitness (endpoint OD595 vs no drug) (fraction); higher = more growth
Procedure, shortened: (§2)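 Bacterial fitness was scored as optical density at the stationary-phase transition relative to the robust mean of no-drug control wells. Scores are capped at 1. The growth data were OD595 readings every 30 min for 14 h at 37 °C, background-subtracted against the first reading, from 384-well plates inoculated at OD595 0.01 in TSB, LB Lennox or CY.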

[6] = test system: S. pneumoniae D39V; experiment: as above
Procedure, shortened: as §2
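Throughout, for Bliss interaction score (quartile over a dose matrix): first quartile when negative (synergy) and third quartile when positive (antagonism).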

C[C@H]1c2cccc(O)c2C(=O)C2=C(O)[C@]3(O)C(=O)C(C(N)=O)=C(O)[C@@H](N(C)C)[C@@H]3[C@@H](O)[C@@H]21 [Doxycycline] + CC1=C\[C@@H](O)CC(=O)Cc2nc(co2)C(=O)N2CCC=C2C(=O)O[C@H](C(C)C)[C@H](C)/C=C/C(=O)NC\C=C\1 [Virginiamycin M1]
Settings | Bliss interaction score
[1] | 0.0353
[2] | -0.151
[3] | 0.0434
[4] | -0.0791

fitness
Settings | first compound 0.0155 µg/mL | first compound 0.02 µg/mL | first compound 0.031 µg/mL | first compound 0.04 µg/mL | first compound 0.062 µg/mL | first compound 0.08 µg/mL
[5], partner 0.0625 µg/mL | – | 0.898 | – | 0.805 | – | 0.572
[5], partner 0.125 µg/mL | – | 0.899 | – | 0.726 | – | 0.458
[5], partner 0.25 µg/mL | – | 0.936 | – | 0.806 | – | 0.491
[6], partner 0.5 µg/mL | 0.968 | – | 0.902 | – | 0.813 | –
[6], partner 1 µg/mL | 0.998 | – | 0.847 | – | 0.831 | –
[6], partner 2 µg/mL | 0.904 | – | 0.794 | – | 0.758 | –

[6], one replicate
Settings | fitness
first compound 0.003875 µg/mL, partner 0.5 µg/mL | ≥ 1
first compound 0.003875 µg/mL, partner 1 µg/mL | ≥ 1
first compound 0.003875 µg/mL, partner 2 µg/mL | ≥ 1
first compound 0.00775 µg/mL, partner 0.5 µg/mL | 0.995
first compound 0.00775 µg/mL, partner 1 µg/mL | ≥ 1
first compound 0.00775 µg/mL, partner 2 µg/mL | ≥ 1
first compound 0.0155 µg/mL, partner 0.15 µg/mL | 0.887
first compound 0.0155 µg/mL, partner 0.3 µg/mL | 0.823
first compound 0.031 µg/mL, partner 0.15 µg/mL | 0.878
first compound 0.031 µg/mL, partner 0.3 µg/mL | 0.819
first compound 0.062 µg/mL, partner 0.15 µg/mL | 0.793
first compound 0.062 µg/mL, partner 0.3 µg/mL | 0.762

O=C(O)c1cn(C2CC2)c2cc(N3CCNCC3)c(F)cc2c1=O [Ciprofloxacin] + CCC(C)C1C(=O)NC(=C)C(=O)NC(C(=O)NC(CSCC(C(=O)N1)NC(=O)/C(=C/C)/NC(=O)C(C(C)CC)N)C(=O)NC2C(SCC(NC(=O)CNC(=O)C3CCCN3C2=O)C(=O)NC(CCCCN)C(=O)NC4C(SCC(NC(=O)CNC(=O)C(NC(=O)C(NC(=O)C(NC(=O)CNC4=O)C)CC(C)C)CCSC)C(=O)NC(CC(=O)N)C(=O)NC(CCSC)C(=O)NC(CCCCN)C(=O)NC5C(SCC6C(=O)NC(C(=O)NC(CSC(C(C(=O)N6)NC(=O)C(NC5=O)C)C)C(=O)NC(CO)C(=O)NC(C(C)CC)C(=O)NC(CC7=CN=CN7)C(=O)NC(C(C)C)C(=O)NC(=C)C(=O)NC(CCCCN)C(=O)O)CC8=CN=CN8)C)C)C)CC(C)C [Nisin]
main component drawn
Settings | Bliss interaction score
[1] | -0.0496
[2] | -0.123
[3] | -0.0601
[4] | -0.059

main component drawn
Settings | fitness
[5], first compound 0.0098 µg/mL, partner 0.5 µg/mL | 0.838
[5], first compound 0.0098 µg/mL, partner 1 µg/mL | 0.814
[5], first compound 0.0098 µg/mL, partner 2 µg/mL | 0.568
[5], first compound 0.0195 µg/mL, partner 0.5 µg/mL | 0.702
[5], first compound 0.0195 µg/mL, partner 1 µg/mL | 0.591
[5], first compound 0.0195 µg/mL, partner 2 µg/mL | 0.427
[5], first compound 0.039 µg/mL, partner 0.5 µg/mL | 0.276
[5], first compound 0.039 µg/mL, partner 1 µg/mL | 0.129
[5], first compound 0.039 µg/mL, partner 2 µg/mL | 0.031
[6], first compound 0.125 µg/mL, partner 0.4275 µg/mL | 0.954
[6], first compound 0.125 µg/mL, partner 0.855 µg/mL | 0.825
[6], first compound 0.125 µg/mL, partner 1.6 µg/mL | 0.0088
[6], first compound 0.125 µg/mL, partner 1.71 µg/mL | 0.0552
[6], first compound 0.125 µg/mL, partner 3.2 µg/mL | 0.0108
[6], first compound 0.125 µg/mL, partner 6.4 µg/mL | 0.005
[6], first compound 0.25 µg/mL, partner 0.4275 µg/mL | 0.883
[6], first compound 0.25 µg/mL, partner 0.855 µg/mL | 0.398
[6], first compound 0.25 µg/mL, partner 1.71 µg/mL | 0.0414
[6], first compound 0.5 µg/mL, partner 0.4275 µg/mL | 0.614
[6], first compound 0.5 µg/mL, partner 0.855 µg/mL | 0.173
[6], first compound 0.5 µg/mL, partner 1.6 µg/mL | 0.0116
[6], first compound 0.5 µg/mL, partner 1.71 µg/mL | 0.0558
[6], first compound 0.5 µg/mL, partner 3.2 µg/mL | 0.043

fitness, one replicate, main component drawn
Settings | partner 1.25 µg/mL | partner 1.6 µg/mL | partner 2.5 µg/mL | partner 3.2 µg/mL | partner 4 µg/mL | partner 5 µg/mL | partner 6.4 µg/mL | partner 8 µg/mL | partner 16 µg/mL
[5], first compound 0.0098 µg/mL | 0.919 | 0.726 | 0.577 | 0.0245 | 0.368 | 0.0657 | 0.0606 | 0.0414 | 0.0186
[5], first compound 0.0195 µg/mL | 0.795 | 0.575 | 0.381 | 0.0411 | 0.223 | 0.035 | 0.0488 | 0.0139 | 0.0115
[5], first compound 0.039 µg/mL | 0.256 | 0.0309 | 0.0565 | 0.0347 | 0.0357 | 0.061 | 0.0335 | 0.0446 | 0.0305
[6], first compound 0.25 µg/mL | – | 0 | – | 0 | – | – | 0 | – | –

CO/N=C(\C(=O)N[C@@H]1C(=O)N2C(C(=O)O)=C(COC(N)=O)CS[C@H]12)c1ccco1 [Cefuroxime] + CCC[C@@H]1C[C@@H](C(=O)N[C@@H]([C@H]2O[C@H](SC)[C@H](O)[C@@H](O)[C@H]2O)[C@@H](C)O)N(C)C1 [Lincomycin]
Settings | Bliss interaction score
[1] | 0.0554
[2] | -0.223
[3] | 0.0595
[4] | -0.0658

fitness, [5], one replicate
Settings | first compound 0.04875 µg/mL | first compound 0.0975 µg/mL | first compound 0.195 µg/mL | first compound 0.39 µg/mL | first compound 0.78 µg/mL | first compound 1.562 µg/mL | first compound 3.125 µg/mL | first compound 6.25 µg/mL
partner 0.1 µg/mL | 0.88 | 0.8 | – | 0.388 | 0.386 | 0.303 | 0.248 | 0.156
partner 0.2 µg/mL | 0.865 | 0.713 | – | 0.358 | 0.372 | 0.265 | 0.19 | 0.137
partner 0.4 µg/mL | – | – | – | 0.373 | 0.319 | 0.265 | 0.175 | 0.101
partner 0.8 µg/mL | 0.505 | 0.467 | 0.359 | – | – | – | – | –
partner 1.6 µg/mL | 0.498 | 0.428 | 0.323 | – | – | – | – | –

fitness, [5]
Settings | first compound 0.04875 µg/mL | first compound 0.0975 µg/mL | first compound 0.195 µg/mL
partner 0.1 µg/mL | – | – | 0.554
partner 0.2 µg/mL | – | – | 0.521
partner 0.4 µg/mL | 0.682 | 0.644 | 0.396

CO/N=C(\C(=O)N[C@@H]1C(=O)N2C(C(=O)O)=C(COC(N)=O)CS[C@H]12)c1ccco1 [Cefuroxime] + CC(=O)NC[C@H]1CN(c2ccc(N3CCOCC3)c(F)c2)C(=O)O1 [Linezolid]
Settings | Bliss interaction score
[1] | 0.139
[2] | -0.208
[3] | 0.079
[4] | 0.0749

fitness, [5]
Settings | first compound 0.04875 µg/mL | first compound 0.0975 µg/mL | first compound 0.195 µg/mL
partner 0.125 µg/mL | 0.532 | 0.526 | 0.423
partner 0.25 µg/mL | 0.293 | 0.261 | 0.0774
partner 0.5 µg/mL | 0.103 | 0.0891 | 0.0749

fitness, [5], one replicate
Settings | first compound 0.195 µg/mL | first compound 0.39 µg/mL | first compound 0.78 µg/mL | first compound 1.562 µg/mL | first compound 3.125 µg/mL | first compound 6.25 µg/mL
partner 0.0625 µg/mL | 0.379 | 0.312 | 0.235 | – | – | –
partner 0.125 µg/mL | – | 0.227 | 0.14 | 0.331 | 0.384 | 0.308
partner 0.25 µg/mL | – | 0.0397 | 0.0222 | 0.0445 | 0.0527 | 0.0345
partner 0.5 µg/mL | – | – | – | 0.0242 | 0.0246 | 0.0074
